Measurements as given in BindingDB's records for doi:10.7270/Q2W957N3 (Burnham Center For Chemical Genomics, 2010).

Each molecule was assayed against Alkaline phosphatase, placental type (Homo sapiens, UniProt P05187) (assay: inhibition of placental alkaline phosphatase – biochemical, uHTS hits, luminescence, selectivity assay for human IAP inhibitor project, dose response (AID 488892)).
Sequence of Alkaline phosphatase, placental type (P05187 whole entry, looked up): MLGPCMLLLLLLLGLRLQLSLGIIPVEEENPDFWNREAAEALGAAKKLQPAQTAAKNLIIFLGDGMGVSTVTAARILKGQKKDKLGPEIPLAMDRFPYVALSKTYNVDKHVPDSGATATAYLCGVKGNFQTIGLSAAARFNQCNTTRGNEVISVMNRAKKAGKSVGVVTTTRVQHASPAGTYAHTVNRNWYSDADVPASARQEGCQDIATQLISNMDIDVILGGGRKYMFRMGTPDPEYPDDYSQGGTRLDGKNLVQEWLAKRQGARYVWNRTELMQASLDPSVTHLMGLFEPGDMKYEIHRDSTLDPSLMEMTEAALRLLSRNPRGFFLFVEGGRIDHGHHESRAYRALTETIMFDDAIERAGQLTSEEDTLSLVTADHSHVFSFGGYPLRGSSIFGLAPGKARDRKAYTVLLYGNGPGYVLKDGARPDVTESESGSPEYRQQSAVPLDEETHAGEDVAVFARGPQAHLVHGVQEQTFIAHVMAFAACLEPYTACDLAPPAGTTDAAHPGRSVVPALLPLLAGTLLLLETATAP

SMILES | IC50
CC(N=Nc1ccccc1[N+](=O)[O-])c1ccc([N+](=O)[O-])cc1 (stereo not drawn) | > 100 µM
CCOC1=CC(=Cc2c(C)[nH]oc2=O)C=C(Br)C1=O [4-[(Z)-(3-bromo-5-ethoxy-4-oxo-1-cyclohexa-2,5-dienylidene)methyl]-3-methyl-2H-isoxazol-5-one] | 35.1 µM
C=c1[nH]n(Cc2ccccc2)c(=O)c1=Cc1ccc(N(C)C)cc1 [(4Z)-4-[[4-(dimethylamino)phenyl]methylidene]-5-methyl-2-(phenylmethyl)-3-pyrazolone] | 37.8 µM
